Reference: ChEMBL document CHEMBL1138996, “Biological evaluation of isothiazoloquinolones containing aromatic heterocycles at the 7-position: In vitro activity of a series of potent antibacterial agents that are effective against methicillin-resistant Staphylococcus aureus” (Bioorg Med Chem Lett, 2006)
Converted amounts (≈) assume the structure as drawn.

What was measured:
HEp-2 = assay: Cytotoxicity against Hep2 cell line; format: functional; conditions: Homo sapiens
Staphylococcus aureus [1] = assay: Antibacterial activity against Staphylococcus aureus ATCC 29213; format: functional
[2] = target: DNA topoisomerase 4 subunit A (Staphylococcus aureus, UniProt P0C1U9); assay: Inhibitory activity against Staphylococcus aureus ATCC 29213 wild type Topo 4
Sequence of DNA topoisomerase 4 subunit A (P0C1U9 whole entry): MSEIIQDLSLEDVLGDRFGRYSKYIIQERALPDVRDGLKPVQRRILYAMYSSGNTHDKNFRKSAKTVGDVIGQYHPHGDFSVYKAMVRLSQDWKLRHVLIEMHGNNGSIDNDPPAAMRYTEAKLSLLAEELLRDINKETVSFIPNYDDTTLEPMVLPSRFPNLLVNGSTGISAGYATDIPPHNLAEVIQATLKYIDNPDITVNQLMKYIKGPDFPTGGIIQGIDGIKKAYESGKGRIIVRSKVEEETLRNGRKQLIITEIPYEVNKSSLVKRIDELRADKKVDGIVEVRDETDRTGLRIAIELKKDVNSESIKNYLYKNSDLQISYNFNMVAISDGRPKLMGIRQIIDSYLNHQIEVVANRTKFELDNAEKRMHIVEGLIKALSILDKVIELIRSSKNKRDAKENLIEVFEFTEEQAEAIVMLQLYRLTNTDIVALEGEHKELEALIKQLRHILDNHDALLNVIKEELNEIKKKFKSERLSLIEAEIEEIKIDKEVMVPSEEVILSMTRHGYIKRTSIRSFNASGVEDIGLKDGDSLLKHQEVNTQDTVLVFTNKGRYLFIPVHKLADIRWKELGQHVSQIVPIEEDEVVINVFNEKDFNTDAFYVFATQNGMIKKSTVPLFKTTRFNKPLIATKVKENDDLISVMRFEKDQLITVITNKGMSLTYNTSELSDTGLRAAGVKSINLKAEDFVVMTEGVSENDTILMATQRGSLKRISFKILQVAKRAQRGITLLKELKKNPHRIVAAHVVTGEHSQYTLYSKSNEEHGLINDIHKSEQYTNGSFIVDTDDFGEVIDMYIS

Escherichia coli = assay: Antibacterial activity against Escherichia coli ATCC 25922; format: functional
Staphylococcus aureus [3] = assay: Antibacterial activity against methicillin-resistant Staphylococcus aureus ATCC 700699; format: functional
Streptococcus pyogenes = assay: Antibacterial activity against Streptococcus pyogenes ATCC 19615; format: functional
Streptococcus pneumoniae = assay: Antibacterial activity against Streptococcus pneumoniae ATCC 49619; format: functional
Moraxella catarrhalis = assay: Antibacterial activity against Moraxella catarrhalis ATCC 8176; format: functional
Klebsiella pneumoniae = assay: Antibacterial activity against Klebsiella pneumoniae ATCC 13883; format: functional
[4] = tested on: Stenotrophomonas maltophilia; assay: Antibacterial activity against Stenotrophomonas maltophilia ATCC 13637; format: functional
Pseudomonas aeruginosa = assay: Antibacterial activity against Pseudomonas aeruginosa ATCC 27853; format: functional
Salmonella typhimurium = assay: Antibacterial activity against Salmonella Typhimurium ATCC 14028; format: functional, Salmonella enterica subsp. enterica serovar Typhimurium; conditions: Salmonella enterica
Haemophilus influenzae = assay: Antibacterial activity against Haemophilus influenzae type b ACH-0056; format: functional
Enterococcus faecium = assay: Antibacterial activity against Enterococcus faecium ATCC 49032; format: functional
Enterococcus faecalis = assay: Antibacterial activity against Enterococcus faecalis ATCC 29212; format: functional

SMILES	CC50 (HEp-2) [µM]	MIC (Staphylococcus aureus [1]) [µg/mL]	IC50 [2] [µM]	MIC (Escherichia coli) [µg/mL]	MIC (Staphylococcus aureus [3]) [µg/mL]	MIC (Streptococcus pyogenes) [µg/mL]	MIC (Streptococcus pneumoniae) [µg/mL]	MIC (Moraxella catarrhalis) [µg/mL]	MIC (Klebsiella pneumoniae) [µg/mL]	MIC [4] [µg/mL]	MIC (Pseudomonas aeruginosa) [µg/mL]	MIC (Salmonella typhimurium) [µg/mL]	MIC (Haemophilus influenzae) [µg/mL]	MIC (Enterococcus faecium) [µg/mL]	MIC (Enterococcus faecalis) [µg/mL]
COc1ncc(-c2cc3c(cc2F)c(=O)c2c(=O)[nH]sc2n3C2CC2)cn1	43	0.015 (≈ 0.039 µM)	3.3	0.13 (≈ 0.338 µM)	8 (≈ 20.8 µM)	–	–	–	–	–	–	–	–	–	–
Cn1ccc2cc(-c3cc4c(cc3F)c(=O)c3c(=O)[nH]sc3n4C3CC3)ccc21	> 100	0.065 (≈ 0.16 µM)	3.6	1 (≈ 2.47 µM)	8 (≈ 19.7 µM)	–	–	–	–	–	–	–	–	–	–
O=c1[nH]sc2c1c(=O)c1cc(F)c(-c3cnc4ccccc4c3)cc1n2C1CC1	> 100	0.011 (≈ 0.0273 µM)	50	0.13 (≈ 0.322 µM)	8 (≈ 19.8 µM)	–	–	–	–	–	–	–	–	–	–
O=c1[nH]sc2c1c(=O)c1cc(F)c(-c3cncc(C4CCCN4)c3)cc1n2C1CC1 (stereo not drawn)	25	0.06 (≈ 0.142 µM)	1.1	0.12 (≈ 0.284 µM)	8 (≈ 18.9 µM)	–	–	–	–	–	–	–	–	–	–
O=c1[nH]sc2c1c(=O)c1cc(F)c(-c3cncc4ccccc34)cc1n2C1CC1	51	0.028 (≈ 0.0694 µM)	> 38	0.48 (≈ 1.19 µM)	8 (≈ 19.8 µM)	–	–	–	–	–	–	–	–	–	–
O=c1[nH]sc2c1c(=O)c1cc(F)c(-c3cccc4ncccc34)cc1n2C1CC1	–	0.016 (≈ 0.0397 µM)	33	0.016 (≈ 0.0397 µM)	2 (≈ 4.96 µM)	0.25 (≈ 0.62 µM)	0.061 (≈ 0.151 µM)	0.0081 (≈ 0.0201 µM)	0.5 (≈ 1.24 µM)	4 (≈ 9.91 µM)	2 (≈ 4.96 µM)	0.5 (≈ 1.24 µM)	0.028 (≈ 0.0694 µM)	0.25 (≈ 0.62 µM)	0.125 (≈ 0.31 µM)
O=c1[nH]sc2c1c(=O)c1cc(F)c(-c3ccc(-n4cccc4)nc3)cc1n2C1CC1	> 100	0.029 (≈ 0.0693 µM)	18	1 (≈ 2.39 µM)	4 (≈ 9.56 µM)	–	–	–	–	–	–	–	–	–	–
O=c1[nH]sc2c1c(=O)c1cc(F)c(-c3cnccn3)cc1n2C1CC1	> 91	0.12 (≈ 0.339 µM)	64	1 (≈ 2.82 µM)	> 64	–	–	–	–	–	–	–	–	–	–
O=c1[nH]sc2c1c(=O)c1cc(F)c(-c3ccc[nH]3)cc1n2C1CC1	23	0.06 (≈ 0.176 µM)	9.9	1 (≈ 2.93 µM)	16 (≈ 46.9 µM)	–	–	–	–	–	–	–	–	–	–
Cc1cc(-c2cc3c(cc2F)c(=O)c2c(=O)[nH]sc2n3C2CC2)cc(C)n1	50	0.0038 (≈ 0.00996 µM)	48	0.031 (≈ 0.0813 µM)	0.25 (≈ 0.655 µM)	–	–	–	–	–	–	–	–	–	–
Cc1ccc(-c2cc3c(cc2F)c(=O)c2c(=O)[nH]sc2n3C2CC2)c(C)n1	> 100	0.13 (≈ 0.341 µM)	8	0.5 (≈ 1.31 µM)	> 64	–	–	–	–	–	–	–	–	–	–
O=c1[nH]sc2c1c(=O)c1cc(F)c(-c3cccnc3)cc1n2C1CC1	> 100	0.0071 (≈ 0.0201 µM)	0.5	0.0035 (≈ 0.0099 µM)	2 (≈ 5.66 µM)	–	–	–	–	–	–	–	–	–	–
Cc1cc(-c2cc3c(cc2F)c(=O)c2c(=O)[nH]sc2n3C2CC2)ccn1	36	0.004 (≈ 0.0109 µM)	26	0.059 (≈ 0.161 µM)	0.5 (≈ 1.36 µM)	0.04 (≈ 0.109 µM)	0.029 (≈ 0.0789 µM)	0.0037 (≈ 0.0101 µM)	0.125 (≈ 0.34 µM)	1 (≈ 2.72 µM)	2 (≈ 5.44 µM)	0.125 (≈ 0.34 µM)	0.015 (≈ 0.0408 µM)	0.25 (≈ 0.68 µM)	0.125 (≈ 0.34 µM)
Cc1ccc(-c2cc3c(cc2F)c(=O)c2c(=O)[nH]sc2n3C2CC2)cn1	31	0.0037 (≈ 0.0101 µM)	8.5	0.037 (≈ 0.101 µM)	1 (≈ 2.72 µM)	–	–	–	–	–	–	–	–	–	–
COc1cncc(-c2cc3c(cc2F)c(=O)c2c(=O)[nH]sc2n3C2CC2)c1	34	0.03 (≈ 0.0782 µM)	21	0.061 (≈ 0.159 µM)	4 (≈ 10.4 µM)	–	–	–	–	–	–	–	–	–	–
Cc1ccc(-c2cc3c(cc2F)c(=O)c2c(=O)[nH]sc2n3C2CC2)nc1	51	0.044 (≈ 0.12 µM)	14	0.12 (≈ 0.327 µM)	32 (≈ 87.1 µM)	–	–	–	–	–	–	–	–	–	–
O=c1[nH]sc2c1c(=O)c1cc(F)c(-c3ccccc3)cc1n2C1CC1	> 100	0.0035 (≈ 0.00993 µM)	6.3	0.06 (≈ 0.17 µM)	16 (≈ 45.4 µM)	–	–	–	–	–	–	–	–	–	–
O=c1[nH]sc2c1c(=O)c1cc(F)c(-c3ccncc3)cc1n2C1CC1	–	0.0035 (≈ 0.0099 µM)	2.2	0.028 (≈ 0.0792 µM)	1 (≈ 2.83 µM)	–	–	–	–	–	–	–	–	–	–
COc1ccncc1-c1cc2c(cc1F)c(=O)c1c(=O)[nH]sc1n2C1CC1	50	0.023 (≈ 0.06 µM)	10	0.25 (≈ 0.652 µM)	4 (≈ 10.4 µM)	–	–	–	–	–	–	–	–	–	–
COc1ccc(-c2cc3c(cc2F)c(=O)c2c(=O)[nH]sc2n3C2CC2)cn1	> 100	0.023 (≈ 0.06 µM)	26	0.015 (≈ 0.0391 µM)	16 (≈ 41.7 µM)	–	–	–	–	–	–	–	–	–	–
